Experimental data: patent publication US20170014409A1, “TREATING INFLAMMATION USING SERELAXIN” (priority 2012, published 2017)

Key:
[1] = wide range of doses; up to six months of continuous treatment; cited from earlier work
[2] = system: sST-2; experiment: Serum sST-2 measured by EIA kit (PRESAGE sST-2 assay) in heart failure subjects treated 48 hours with serelaxin or placebo; assay type: in vivo, human
Description: Samples were collected from subjects enrolled in a multi-center, randomized, double-blind, placebo-controlled clinical trial, which was conducted to determine the safety and efficacy of serelaxin (recombinant human serelaxin) in subjects with heart failure, as described in Teerlink et al. (supra).
Serum was collected from 218 subjects (supra) for whom a baseline level of sST-2 as well as a post-serelaxin treatment level of sST-2 was determined. sST-2 was found at a lower limit of quantitation of 3.1 ng/ml and an upper limit of quantitation of 200 ng/ml. sST-2 was measured via the EIA kit (see Example 7 for more detail) and exact clinical measurements are summarized in Table 1 (see attached Table 1).
The difference between the placebo group and each of the serelaxin dose groups was statistically significant at 48 hours.
At baseline, geometric means across treatment groups ranged from 47 ng/ml to 60 ng/ml, i.e., 55 percent of the treated subjects had sST-2 concentrations that exceeded the normal range of 33.5 ng/ml in females and 49.3 ng/ml in males. […] This established that serelaxin transiently upregulates sST-2.
FIG. 3 depicts a between-treatment analysis of sST-2 by visit, comparing a change from baseline in sST-2 geometric means between the serelaxin groups compared to the placebo group at 3 time points. […] The differences subsided so that by Day 5, changes from baseline in 3 of the 4 serelaxin groups, as well as the pooled serelaxin group, were no different than change from baseline in the placebo group. By Day 14, the changes from baseline in all of the serelaxin groups were not different from change in the placebo group. As above, this establishes that serelaxin transiently up-regulates sST-2.
sST-2 levels were measured with the EIA Test Kit & PRESAGE sST-2 Assay (from Critical Diagnostics, NY) according to the manufacturer's instructions. Alternatively, other assays could be used such as the QUANTIKINE ST2/IL-1 R4 Immunoassay (from R&D Systems, Inc., MN).
The EIA test kit is a quantitative sandwich monoclonal ELISA in a 96 well plate format for measurement of sST-2 in serum or plasma. Diluted serum from 218 subjects was loaded into the appropriate wells in the anti-ST-2 antibody coated plate and incubated for the prescribed time. Following a series of steps, where reagents were washed from the plate, and additional reagents were added and subsequently washed out, the analyte sST-2 was detected by addition of a colorimetric reagent. The resulting signal was measured spectroscopically at 450 nm. The assay was conducted according to the parameters described in the assay description of the EIA test kit with all prescribed reagents and materials.

## serelaxin
[1]
  safety in nonclinical toxicology studies: safe
[2]; 48 hours of treatment, all serelaxin dose groups, placebo decreased 30%, p<0.05 for all serelaxin groups vs. placebo
  change from baseline in sST-2 concentrations at 48 hours: increase from baseline
[2]; 48 hours, all serelaxin groups and pooled serelaxin group, between-treatment analysis (FIG. 3)
  change from baseline in sST-2 geometric means vs. placebo group at 48 hours: significantly different
[2]; Day 5, 3 of the 4 serelaxin groups and pooled serelaxin group
  change from baseline in sST-2 geometric means vs. placebo group at Day 5: no different
[2]; Day 14, all serelaxin groups
  change from baseline in sST-2 geometric means vs. placebo group at Day 14: not different
